In patent publication US11739098B2 (BRISTOL-MYERS SQUIBB COMPANY, priority 2017, dated 2023):

What was measured:
Format in all cases: cell-based
human TLR7 = biological target: T1, human TLR7 (Homo sapiens, UniProt Q9NYK1); assay: TLR7 inhibition reporter assay (HEK-Blue cells, SEAP reporter, gardiquimod stimulation); settings: HEK-Blue cells overexpressing human TLR7, SEAP reporter, gardiquimod 7.5 μM
T1 construct: host or cells: HEK-Blue cells (HEK293-derived reporter line)
T1 sequence (Q9NYK1 27-1049): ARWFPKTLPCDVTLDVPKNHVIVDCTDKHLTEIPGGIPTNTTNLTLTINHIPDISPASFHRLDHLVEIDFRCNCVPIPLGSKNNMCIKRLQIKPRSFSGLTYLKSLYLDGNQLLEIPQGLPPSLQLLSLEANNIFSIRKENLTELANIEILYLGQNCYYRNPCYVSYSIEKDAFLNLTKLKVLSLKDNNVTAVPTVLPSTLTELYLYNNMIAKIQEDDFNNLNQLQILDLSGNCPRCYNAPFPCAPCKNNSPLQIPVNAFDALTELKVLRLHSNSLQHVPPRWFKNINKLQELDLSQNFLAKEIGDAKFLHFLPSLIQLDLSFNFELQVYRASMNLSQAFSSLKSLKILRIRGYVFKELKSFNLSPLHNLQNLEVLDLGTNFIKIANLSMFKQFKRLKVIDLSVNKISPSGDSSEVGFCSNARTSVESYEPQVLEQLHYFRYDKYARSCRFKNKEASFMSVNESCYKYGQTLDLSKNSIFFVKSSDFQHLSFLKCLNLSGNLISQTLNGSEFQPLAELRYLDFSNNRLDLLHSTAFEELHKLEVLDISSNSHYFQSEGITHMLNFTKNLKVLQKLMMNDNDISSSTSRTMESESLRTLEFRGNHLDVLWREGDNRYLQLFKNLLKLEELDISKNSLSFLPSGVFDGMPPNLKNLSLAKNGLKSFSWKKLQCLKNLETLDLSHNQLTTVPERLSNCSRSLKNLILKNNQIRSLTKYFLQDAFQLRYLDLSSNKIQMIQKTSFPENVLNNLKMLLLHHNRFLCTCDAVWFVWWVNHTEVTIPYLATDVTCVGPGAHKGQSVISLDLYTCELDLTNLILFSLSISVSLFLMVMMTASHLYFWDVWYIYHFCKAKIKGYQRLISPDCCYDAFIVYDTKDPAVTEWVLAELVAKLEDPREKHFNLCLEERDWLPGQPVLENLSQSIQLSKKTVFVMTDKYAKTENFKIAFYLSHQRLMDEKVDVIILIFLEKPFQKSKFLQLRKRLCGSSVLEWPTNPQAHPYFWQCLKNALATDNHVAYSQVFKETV
Procedure, shortened: (§1)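 Percent inhibition of agonist-induced SEAP secretion in HEK-Blue cells after 22 h at 37 °C. Stimuli: 7.5 μM gardiquimod, 15.9 μM R848, 5 nM ODN2006 for TLR7, TLR8 and TLR9, added after 30 min compound exposure over a 0.05 nM–50 μM range.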

human TLR8 = biological target: T2, human TLR8 (Homo sapiens, UniProt Q9NR97); assay: TLR8 inhibition reporter assay (HEK-Blue cells, SEAP reporter, R848 stimulation); settings: HEK-Blue cells overexpressing human TLR8, SEAP reporter, R848 15.9 μM
T2 construct: host or cells: HEK-Blue cells (HEK293-derived reporter line)
T2 sequence (Q9NR97 27-1041): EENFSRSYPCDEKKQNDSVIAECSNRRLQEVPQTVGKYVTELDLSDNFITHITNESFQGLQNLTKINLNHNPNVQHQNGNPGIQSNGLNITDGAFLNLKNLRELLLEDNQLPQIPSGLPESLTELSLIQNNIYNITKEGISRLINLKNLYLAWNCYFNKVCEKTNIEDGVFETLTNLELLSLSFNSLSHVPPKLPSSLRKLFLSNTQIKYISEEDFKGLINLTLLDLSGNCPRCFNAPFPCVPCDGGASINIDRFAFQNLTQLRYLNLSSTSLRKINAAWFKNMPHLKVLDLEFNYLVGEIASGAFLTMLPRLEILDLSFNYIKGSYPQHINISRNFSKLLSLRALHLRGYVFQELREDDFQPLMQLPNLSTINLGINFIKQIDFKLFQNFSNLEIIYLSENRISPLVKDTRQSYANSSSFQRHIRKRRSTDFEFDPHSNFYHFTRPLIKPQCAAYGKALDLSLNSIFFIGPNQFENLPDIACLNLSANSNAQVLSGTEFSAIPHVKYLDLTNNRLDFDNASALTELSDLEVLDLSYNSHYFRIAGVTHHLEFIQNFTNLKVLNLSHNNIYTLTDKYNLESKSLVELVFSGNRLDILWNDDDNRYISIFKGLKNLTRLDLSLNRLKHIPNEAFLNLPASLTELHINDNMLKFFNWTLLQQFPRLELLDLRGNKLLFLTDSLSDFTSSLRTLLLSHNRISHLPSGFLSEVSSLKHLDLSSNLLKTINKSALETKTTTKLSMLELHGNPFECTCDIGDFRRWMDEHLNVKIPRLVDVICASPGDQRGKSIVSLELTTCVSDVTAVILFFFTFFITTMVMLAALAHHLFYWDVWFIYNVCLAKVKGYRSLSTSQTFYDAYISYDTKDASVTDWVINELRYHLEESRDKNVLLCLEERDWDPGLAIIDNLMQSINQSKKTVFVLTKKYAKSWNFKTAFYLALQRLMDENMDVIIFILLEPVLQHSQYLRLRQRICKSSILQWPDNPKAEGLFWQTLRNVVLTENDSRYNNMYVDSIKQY
Procedure, shortened: as §1

human TLR9 = biological target: T3, human TLR9 (Homo sapiens, UniProt Q9NR96); assay: TLR9 inhibition reporter assay (HEK-Blue cells, SEAP reporter, ODN2006 stimulation); settings: HEK-Blue cells overexpressing human TLR9, SEAP reporter, ODN2006 5 nM
T3 construct: host or cells: HEK-Blue cells (HEK293-derived reporter line)
T3 sequence (Q9NR96 26-1032): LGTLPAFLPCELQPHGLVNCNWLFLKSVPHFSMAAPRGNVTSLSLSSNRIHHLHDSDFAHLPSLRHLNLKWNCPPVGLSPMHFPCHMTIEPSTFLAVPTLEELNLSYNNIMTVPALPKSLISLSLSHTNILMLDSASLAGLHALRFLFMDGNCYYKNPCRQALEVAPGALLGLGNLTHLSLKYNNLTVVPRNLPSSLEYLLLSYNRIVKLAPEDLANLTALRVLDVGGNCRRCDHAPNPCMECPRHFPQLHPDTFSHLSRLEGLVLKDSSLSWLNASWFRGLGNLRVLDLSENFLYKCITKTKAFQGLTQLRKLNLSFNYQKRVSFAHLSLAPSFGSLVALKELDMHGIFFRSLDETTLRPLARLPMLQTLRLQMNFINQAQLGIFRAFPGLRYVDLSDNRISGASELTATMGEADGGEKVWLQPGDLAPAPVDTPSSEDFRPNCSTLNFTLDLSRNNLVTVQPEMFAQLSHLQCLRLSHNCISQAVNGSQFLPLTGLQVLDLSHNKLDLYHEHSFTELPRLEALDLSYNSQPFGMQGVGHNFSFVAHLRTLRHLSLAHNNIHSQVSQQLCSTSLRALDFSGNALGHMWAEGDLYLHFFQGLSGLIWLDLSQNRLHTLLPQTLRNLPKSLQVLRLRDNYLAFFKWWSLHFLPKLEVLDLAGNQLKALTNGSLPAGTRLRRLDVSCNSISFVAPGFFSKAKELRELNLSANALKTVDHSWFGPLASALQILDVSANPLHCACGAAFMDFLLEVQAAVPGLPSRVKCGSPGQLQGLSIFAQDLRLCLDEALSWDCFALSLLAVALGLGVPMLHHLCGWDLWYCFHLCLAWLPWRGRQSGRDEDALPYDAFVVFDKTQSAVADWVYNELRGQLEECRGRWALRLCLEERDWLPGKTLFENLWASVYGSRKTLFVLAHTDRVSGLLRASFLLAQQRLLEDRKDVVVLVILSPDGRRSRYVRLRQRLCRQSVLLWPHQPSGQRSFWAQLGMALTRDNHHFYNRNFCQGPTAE
Procedure, shortened: as §1

IC50 (human TLR7)	IC50 (human TLR8)	IC50 (human TLR9)	Structure (SMILES)
< 0.1 µM	< 0.1 µM	1 to 50 µM	Cc1cnc2[nH]ncc2c1-c1[nH]c2ccc(C3CCNCC3)cc2c1C(C)C [Example 46, 4-(3-isopropyl-5-(piperidin-4-yl)-1H-indol-2-yl)-5-methyl-1H-pyrazolo[3,4-b]pyridine]
0.1 to 1 µM	< 0.1 µM	1 to 50 µM	CCc1c[nH]c2nccc(-c3[nH]c4ccc(C5CCNCC5)cc4c3C(C)C)c12 [Example 222, 3-ethyl-4-(3-isopropyl-5-(piperidin-4-yl)-1H-indol-2-yl)-1H-pyrrolo[2,3-b]pyridine]
0.1 to 1 µM	> 3.13 µM	1 to 50 µM	CNC(=O)c1cnn2c(C)cc(-c3[nH]c4ccc(C5CCNCC5)cc4c3C(C)C)cc12 [Example 274, 5-(3-isopropyl-5-(piperidin-4-yl)-1H-indol-2-yl)-N,7-dimethylpyrazolo[1,5-a]pyridine-3-carboxamide]
< 0.1 µM	< 0.1 µM	1 to 50 µM	COCCN1CCC(c2ccc3[nH]c(-c4cc(OC)n5ncnc5c4)c(C(C)C)c3c2)CC1 [Example 780, 7-(3-isopropyl-5-(1-(2-methoxyethyl)piperidin-4-yl)-1H-indol-2-yl)-5-methoxy-[1,2,4]triazolo[1,5-a]pyridine]
< 0.1 µM	< 0.1 µM	1 to 50 µM	CNC(=O)CN1CCC(c2ccc3[nH]c(-c4cc(C)nc5ccccc45)c(C(C)C)c3c2)CC1 [Example 328, 2-(4-(3-isopropyl-2-(2-methylquinolin-4-yl)-1H-indol-5-yl)piperidin-1-yl)-N-methylacetamide]
< 0.1 µM	0.1 to 1 µM	1 to 50 µM	Cc1cc(-c2[nH]c3ccc(C4CCN(C5CCOCC5)CC4)cc3c2C(C)C)cc2cccnc12 [Example 704, 6-(3-isopropyl-5-(1-(tetrahydro-2H-pyran-4-yl)piperidin-4-yl)-1H-indol-2-yl)-8-methylquinoline]
< 0.1 µM	< 0.1 µM	0.1 to 1 µM	CCc1c(-c2c[nH]c3ncccc23)[nH]c2ccc(C3CCNCC3)cc12 [Example 243, 3-(3-ethyl-5-(piperidin-4-yl)-1H-indol-2-yl)-1H-pyrrolo[2,3-b]pyridine]
< 0.1 µM	< 0.1 µM	1 to 50 µM	Cc1cc(-c2[nH]c3ccc(C4CCNCC4)cc3c2C(C)C)c2ccccc2n1 [Example 104, 4-(3-isopropyl-5-(piperidin-4-yl)-1H-indol-2-yl)-2-methylquinoline]
< 0.1 µM	< 0.1 µM	1 to 50 µM	CC(C)c1c(-c2ccnc3[nH]ncc23)[nH]c2ccc(C3CCN(C(=O)CN(C)C(C)C)CC3)cc12 [Example 585, 2-(isopropyl(methyl)amino)-1-(4-(3-isopropyl-2-(1H-pyrazolo[3,4-b]pyridin-4-yl)-1H-indol-5-yl)piperidin-1-yl)ethan-1-one]
< 0.1 µM	0.1 to 1 µM	1 to 50 µM	CC(C)c1c(-c2cc(CO)c3nnnn3c2)[nH]c2ccc(C3CCNCC3)cc12 [Example 71, (6-(3-isopropyl-5-(piperidin-4-yl)-1H-indol-2-yl)tetrazolo[1,5-a]pyridin-8-yl)methanol]
< 0.1 µM	< 0.1 µM	1 to 50 µM	Cc1cc(-c2[nH]c3ccc(C4CCN(C(=O)CCN5CCC(F)(F)CC5)CC4)cc3c2C(C)C)cn2nnnc12 [Example 628, 3-(4,4-difluoropiperidin-1-yl)-1-(4-(3-isopropyl-2-(8-methyltetrazolo[1,5-a]pyridin-6-yl)-1H-indol-5-yl)piperidin-1-yl)propan-1-one]
< 0.1 µM	< 0.1 µM	1 to 50 µM	CNC(=O)CN1CCC(c2ccc3[nH]c(-c4cc(C)c5nnnn5c4)c(C(C)C)c3c2)CC1 [Example 312, 2-(4-(3-isopropyl-2-(8-methyltetrazolo[1,5-a]pyridin-6-yl)-1H-indol-5-yl)piperidin-1-yl)-N-methylacetamide]
1 to 50 µM	1 to 50 µM	0.1 to 1 µM	Cc1c(-c2ncc3cc[nH]c3n2)[nH]c2ccc(C3CCN(C4CCN(C(C)C)CC4)CC3)cc12 [Example 809, 2-(5-(1′-isopropyl-[1,4′-bipiperidin]-4-yl)-3-methyl-1H-indol-2-yl)-7H-pyrrolo[2,3-d]pyrimidine]
< 0.1 µM	< 0.1 µM	1 to 50 µM	CC(C)c1c(-c2ccc3ncsc3c2)[nH]c2ccc(C3CCNCC3)cc12 [Example 9, 6-(3-isopropyl-5-(piperidin-4-yl)-1H-indol-2-yl) benzo[d]thiazole]
< 0.1 µM	< 0.1 µM	0.1 to 1 µM	Cc1cc(-c2[nH]c3ccc(C4CCN(Cc5ccn(C)n5)CC4)cc3c2C(C)C)cc2cnnn12 [Example 891, 5-(3-isopropyl-5-(1-((1-methyl-1H-pyrazol-3-yl)methyl)piperidin-4-yl)-1H-indol-2-yl)-7-methyl-[1,2,3]triazolo[1,5-a]pyridine]
